US20190269703A1, “MATERIALS AND METHODS FOR TREATING CHRONIC COUGH” (Mayo Foundation for Medical Education and Research, priority 2016, published 2019)

Columns and labels:
[1] = tested on: postnasal drip; assay: Treatment of postnasal drip: nasal spray delivered into the nasal cavity, patient responses evaluated; format: in vivo, human; settings: 34 μg/spray diphenhydramine in combination with an anticholinergic and a glucocorticosteroid (mometasone furoate 1.7 mg/5 mL, ipratropium bromide 1 mg/5 mL, diphenhydramine 1.7 mg/5 mL); two sprays to each nostril daily; evaluated after 4 to 6 weeks
Protocol: A composition including mometasone furoate (1.7 mg/5 mL), ipratropium bromide (1 mg/5 mL), and diphenhydramine (1.7 mg/5 mL) was prepared. A specially configured nasal atomizer having a large aerosol plume and a three inch stem was used to bypass the nasal valve area and deliver medication into the nasal cavity. Two sprays were administered to each nostril daily. Patient responses were evaluated after 4 to 6 weeks.

[2] = Sedation / patient tolerance of the nasal spray in use; format: in vivo, human; settings: 34 micrograms/spray (or 69 μg daily) to each nostril, triple combination nasal spray; 15,000 units dispensed
Protocol: A specially configured nasal atomizer having a large aerosol plume and a three inch stem was used to bypass the nasal valve area and deliver medication into the nasal cavity. Two sprays were administered to each nostril daily. Patient responses were evaluated after 4 to 6 weeks.
34 micrograms/spray (or 69 μg daily) to each nostril is […] less than the lowest dose (12.5 milligrams) of oral diphenhydramine.

## CN(C)CCOC(c1ccccc1)c1ccccc1 [Diphenhydramine, diphenhydramine]
[1]
  arresting postnasal drip: effective
[2]
  sedation: sedation has not been an issue
